Assay results taken from US20060121083A1 (priority 2003, published 2006).
Values after ≈ are worked out from the molar mass of the structure shown. Where two headings read alike, the source gives them in different places. Square brackets hold non-standard residues; d marks the D form. Peptide text beside a SMILES is read from it. * marks the point of attachment. Lauroyl = CCCCCCCCCCCC(=O)*; 12Ado = NCCCCCCCCCCCC(=O)O; Decanoyl = CCCCCCCCCC(=O)*; Octanoyl = CCCCCCCC(=O)*; Hexanoyl = CCCCCC(=O)*; Butyryl = CCCC(=O)*

What was measured:
[1] = system: S. aureus; assay: MIC assayed against S. aureus (Table 1); type: cell-based
[2] = system: methicillin-resistant S. aureus (MRSA); type: in vivo; conditions: rats, MRSA challenge, explanted at 7 days
Source text: (§1) Animals: Adult male Wistar rats, 250-300 gr (I.N.R.C.A. I.R.R.C.S. animal facility, Ancona) were used, with 15 animals per experimental group.
(§2) Mammalian graft infection model: Rats were anesthetized and their hair of the back was shaved and the skin cleansed with 10 percent povidone-iodine solution. One subcutaneous pocket was made on each side of the median line by a 1.5 cm incision. Aseptically, 1 square centimeter sterile albumin-sealed Dacron™ grafts (Albograft™, Sorin Biomedica Cardio, S.p.A., Saluggia VC, Italy) were implanted into the pockets. Prior to implantation grafts were soaked for 20 minutes in sterile antibiotic solutions. The pockets were closed by means of skin clips and saline solution (1 mL) containing methicillin-resistant S. aureus (MRSA) or S. epidermidis (MRSE) at a concentration of 2×10^7 colony-forming units (CFU)/mL was inoculated onto the graft surface by using a tuberculin syringe to create a subcutaneous fluid-filled pocket. The animals were returned to individual cages and thoroughly examined daily. All grafts were explanted at 7 days following implantation.
(§3) Assessment of the infection: The explanted grafts were placed in sterile tubes, washed in sterile saline solution, placed in tubes containing 10 mL of phosphate-buffered saline solution and sonicated for 5 minutes to remove the adherent bacteria from the grafts (Balaban, N. et al, 2003. Kidney Int. 63: 340-345). Quantitation of viable staphylococci was performed by culturing serial dilutions (0.1 mL) of the bacterial suspensions on blood agar plates at 37 degrees centigrade for 48 hours. The organisms were quantitated by counting the number of colony-forming units (CFUs) per plate. The limit of detection for this method was approximately 10 CFU/mL.
(§4) Statistical analysis: MIC values are presented as the geometric mean of three separate experiments. […] Significance was accepted when the P value was less than/equal to 0.05.

[3] = system: methicillin-resistant S. epidermidis (MRSE); type: in vivo; conditions: rats, MRSE challenge, explanted at 7 days
Source text: as §1, §2, §3, §4

[4] = system: S. aureus cells; assay: Bacterial growth (CFU) of S. aureus culture grown with peptides; type: cell-based; conditions: in-vitro culture grown 2.5 hours with peptide, FIG. 5a
Procedure: (§5) RNAIII synthesis and bacterial growth: Cultures of S. aureus (20 million cells in a volume of 30 microliters) containing an expression construct for expression of the fusion protein maiii::blaZ (described in Gov, Y. et al., 2001. Peptides. 22: 1609-20 were grown for 2.5 hours with 5 microliters peptide solution or control buffer. A 5 microliter sample was taken from the cultures, diluted in saline, and streaked on LB agar plates to quantitate CFUs. The remainder of the cultures were used to determine RNAIII synthesis (beta-lactamase activity). This was performed by adding a substrate of beta-lactamase (nitrocefin), and determining OD 490 nm/OD 650 nm, as previously described (Gov, Y. et al., 2001. Peptides. 22: 1609-20).

[5] = system: RNAIII synthesis; assay: RNAIII synthesis (beta-lactamase reporter, nitrocefin); type: cell-based, S. aureus
Procedure: as §5

[6] = graft presoaked in 10 micrograms/mL peptide
[7] = graft presoaked in 20 micrograms/mL peptide
[8] = graft presoaked in 50 micrograms/mL peptide

CCCCCCCCCCCC(=O)N[C@@H](C)C(=O)N[C@@H](CC(C)C)C(=O)N[C@@H](Cc1c[nH]c2ccccc12)C(=O)N[C@@H](CCCCN)C(=O)N[C@H](C(=O)N[C@@H](CC(C)C)C(=O)N[C@@H](CC(C)C)C(=O)N[C@@H](CCCCN)C(=O)N[C@@H](CCCCN)C(=O)N[C@H](C(=O)N[C@@H](CC(C)C)C(=O)N[C@@H](CCCCN)C(=O)N[C@@H](C)C(N)=O)C(C)C)[C@@H](C)O [SEQ ID NO: 1, C12—, —CONH2] (Lauroyl-ALWKTLLKKVLKA-NH2)
MIC (minimal inhibitory concentration) [1]: 4.5 ± 1.5 µM (≈ 7.62 µg/mL)

CCCCCCCC(=O)N[C@@H](C)C(=O)N[C@@H](CC(C)C)C(=O)N[C@@H](Cc1c[nH]c2ccccc12)C(=O)N[C@@H](CCCCN)C(=O)N[C@H](C(=O)N[C@@H](CC(C)C)C(=O)N[C@@H](CC(C)C)C(=O)N[C@@H](CCCCN)C(=O)N[C@@H](CCCCN)C(=O)N[C@H](C(=O)N[C@@H](CC(C)C)C(=O)N[C@@H](CCCCN)C(=O)N[C@@H](C)C(N)=O)C(C)C)[C@@H](C)O [SEQ ID NO: 1, C8—, —CONH2] (Octanoyl-ALWKTLLKKVLKA-NH2)
MIC (minimal inhibitory concentration) [1]: 1.5 µM (≈ 2.46 µg/mL)

CC(C)C[C@H](NC(=O)[C@H](C)N)C(=O)N[C@@H](Cc1c[nH]c2ccccc12)C(=O)N[C@@H](CCCCN)C(=O)N[C@H](C(=O)N[C@@H](CC(C)C)C(=O)N[C@@H](CC(C)C)C(=O)N[C@@H](CCCCN)C(=O)N[C@@H](CCCCN)C(=O)N[C@H](C(=O)N[C@@H](CC(C)C)C(=O)N[C@@H](CCCCN)C(=O)N[C@@H](C)C(N)=O)C(C)C)[C@@H](C)O [DD13] (H-ALWKTLLKKVLKA-NH2; N-terminus assumed)
MIC (minimal inhibitory concentration) [1]: 9 ± 3 µM (≈ 13.6 µg/mL)
Graft bacterial load (quantitative culture) [2, 6]: 5.2×10^2±1.6×10^2 CFU/ml
Graft bacterial load (quantitative culture) [2, 7]: 4.0×10^1±1.7×10^1 CFU/ml
Graft bacterial load (quantitative culture) [2, 8]: negative quantitative cultures
Graft bacterial load (quantitative culture) [3, 6]: 5.2×10^2±1.6×10^2 CFU/ml
Graft bacterial load (quantitative culture) [3, 7]: 4.4×10^1±1.3×10^1 CFU/ml
Graft bacterial load (quantitative culture) [3, 8]: negative quantitative cultures
Bactericidal activity (CFU counts) [4]: potent bactericidal activity
Inhibition of RNAIII synthesis ([5]; FIG. 5b, at high peptide concentrations mostly attributable to cell death): more efficient than RIP
Effect on RNAIII synthesis at low peptide concentrations ([5]; low peptide concentrations where no cell death occurred (inset FIG. 5b)): unable to affect RNAIII synthesis

CC(=O)N[C@@H](C)C(=O)N[C@@H](CC(C)C)C(=O)N[C@@H](Cc1c[nH]c2ccccc12)C(=O)N[C@@H](CCCCN)C(=O)N[C@H](C(=O)N[C@@H](CC(C)C)C(=O)N[C@@H](CC(C)C)C(=O)N[C@@H](CCCCN)C(=O)N[C@@H](CCCCN)C(=O)N[C@H](C(=O)N[C@@H](CC(C)C)C(=O)N[C@@H](CCCCN)C(=O)N[C@@H](C)C(N)=O)C(C)C)[C@@H](C)O [SEQ ID NO: 1, C2—, —CONH2] (Ac-ALWKTLLKKVLKA-NH2)
MIC (minimal inhibitory concentration) [1]: 25 µM (≈ 38.8 µg/mL)

CCCC(=O)N[C@@H](C)C(=O)N[C@@H](CC(C)C)C(=O)N[C@@H](Cc1c[nH]c2ccccc12)C(=O)N[C@@H](CCCCN)C(=O)N[C@H](C(=O)N[C@@H](CC(C)C)C(=O)N[C@@H](CC(C)C)C(=O)N[C@@H](CCCCN)C(=O)N[C@@H](CCCCN)C(=O)N[C@H](C(=O)N[C@@H](CC(C)C)C(=O)N[C@@H](CCCCN)C(=O)N[C@@H](C)C(N)=O)C(C)C)[C@@H](C)O [SEQ ID NO: 1, C4—, —CONH2] (Butyryl-ALWKTLLKKVLKA-NH2)
MIC (minimal inhibitory concentration) [1]: 12 µM (≈ 19 µg/mL)

CCCCCCCCCC(=O)N[C@@H](C)C(=O)N[C@@H](CC(C)C)C(=O)N[C@@H](Cc1c[nH]c2ccccc12)C(=O)N[C@@H](CCCCN)C(=O)N[C@H](C(=O)N[C@@H](CC(C)C)C(=O)N[C@@H](CC(C)C)C(=O)N[C@@H](CCCCN)C(=O)N[C@@H](CCCCN)C(=O)N[C@H](C(=O)N[C@@H](CC(C)C)C(=O)N[C@@H](CCCCN)C(=O)N[C@@H](C)C(N)=O)C(C)C)[C@@H](C)O [SEQ ID NO: 1, C10—, —CONH2] (Decanoyl-ALWKTLLKKVLKA-NH2)
MIC (minimal inhibitory concentration) [1]: 1.5 µM (≈ 2.5 µg/mL)

CCCCCCCCCCCC(=O)N[C@@H](C)C(=O)N[C@@H](CC(C)C)C(=O)N[C@@H](Cc1c[nH]c2ccccc12)C(=O)N[C@@H](CCCCN)C(=O)N[C@H](C(=O)N[C@@H](CC(C)C)C(=O)N[C@@H](CC(C)C)C(=O)N[C@@H](CCCCN)C(=O)N[C@@H](CCCCN)C(=O)N[C@H](C(N)=O)C(C)C)[C@@H](C)O [SEQ ID NO: 4, C12, —CONH2] (Lauroyl-ALWKTLLKKV-NH2)
MIC (minimal inhibitory concentration) [1]: 3 µM (≈ 4.14 µg/mL)

CC(C)C[C@H](NC(=O)[C@H](C)NC(=O)[C@H](CCCCN)NC(=O)CCCCCCCCCCCN)C(=O)N[C@@H](Cc1c[nH]c2ccccc12)C(=O)N[C@@H](CCCCN)C(=O)N[C@H](C(=O)N[C@@H](CC(C)C)C(=O)N[C@@H](CC(C)C)C(=O)N[C@@H](CCCCN)C(=O)N[C@@H](CCCCN)C(=O)N[C@H](C(=O)N[C@@H](CC(C)C)C(=O)N[C@@H](CCCCN)C(=O)N[C@@H](C)C(N)=O)C(C)C)[C@@H](C)O [SEQ ID NO: 3, NC12—, —CONH2]
MIC (minimal inhibitory concentration) [1]: 1.5 µM (≈ 2.75 µg/mL)

CC(C)C[C@H](NC(=O)[C@H](Cc1c[nH]c2ccccc12)NC(=O)[C@H](CCCCN)NC(=O)[C@@H](NC(=O)[C@H](CC(C)C)NC(=O)[C@H](CC(C)C)NC(=O)[C@H](CCCCN)NC(=O)[C@H](CCCCN)NC(=O)[C@@H](NC(=O)[C@H](CC(C)C)NC(=O)[C@H](CCCCN)NC(=O)[C@H](C)NC(=O)CCCCCCCCCCCN)C(C)C)[C@@H](C)O)C(=O)N[C@@H](C)C(N)=O [SEQ ID NO: 2, NC12—, —CONH2]
MIC (minimal inhibitory concentration) [1]: 1.5 µM (≈ 2.56 µg/mL)

CCCCCC(=O)N[C@@H](C)C(=O)N[C@@H](CC(C)C)C(=O)N[C@@H](Cc1c[nH]c2ccccc12)C(=O)N[C@@H](CCCCN)C(=O)N[C@H](C(=O)N[C@@H](CC(C)C)C(=O)N[C@@H](CC(C)C)C(=O)N[C@@H](CCCCN)C(=O)N[C@@H](CCCCN)C(=O)N[C@H](C(=O)N[C@@H](CC(C)C)C(=O)N[C@@H](CCCCN)C(=O)N[C@@H](C)C(N)=O)C(C)C)[C@@H](C)O [SEQ ID NO: 1, C6—, —CONH2] (Hexanoyl-ALWKTLLKKVLKA-NH2)
MIC (minimal inhibitory concentration) [1]: 2.2 ± 0.8 µM (≈ 3.54 µg/mL)

CC(C)C[C@H](NC(=O)[C@H](C)NC(=O)CCCCCCCCCCCN)C(=O)N[C@@H](Cc1c[nH]c2ccccc12)C(=O)N[C@@H](CCCCN)C(=O)N[C@H](C(=O)N[C@@H](CC(C)C)C(=O)N[C@@H](CC(C)C)C(=O)N[C@@H](CCCCN)C(=O)N[C@@H](CCCCN)C(=O)N[C@H](C(=O)N[C@@H](CC(C)C)C(=O)N[C@@H](CCCCN)C(=O)N[C@@H](C)C(N)=O)C(C)C)[C@@H](C)O [SEQ ID NO: 1, NC12—, —CONH2] (H-[12Ado]ALWKTLLKKVLKA-NH2)
MIC (minimal inhibitory concentration) [1]: 0.75 µM (≈ 1.28 µg/mL)

CCCCCCCCCCCC(=O)N[C@H](C(=O)N[C@@H](CC(C)C)C(=O)N[C@@H](CC(C)C)C(=O)N[C@@H](CCCCN)C(=O)N[C@@H](CCCCN)C(=O)N[C@H](C(=O)N[C@@H](CC(C)C)C(=O)N[C@@H](CCCCN)C(=O)N[C@@H](C)C(N)=O)C(C)C)[C@@H](C)O [SEQ ID NO: 5, C12, —CONH2] (Lauroyl-TLLKKVLKA-NH2)
MIC (minimal inhibitory concentration) [1]: 1.5 ± 0.75 µM (≈ 1.79 µg/mL)
